Reference: ChEMBL document CHEMBL1201862, “PubChem BioAssay data set” (2004)
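Following 48 hours of exposure in 96-well plates, responses at five concentrations were used to interpolate endpoints linearly. The concentration for 50% growth inhibition is given as GI50.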 Activity calls are given as the source filed them. Rule as the data show it: active = GI50 up to about 1.1 µM and inactive = higher.

Tests used:
Assay in all cases: inhibition of tumour cell growth, NCI panel, 48 h
COLO 205 = tested on: COLO 205
SK-OV-3 = tested on: SK-OV-3
SF-268 = tested on: SF-268
HOP-92 = tested on: HOP-92
PC-3 = tested on: PC-3
U-251 = tested on: U-251
T47D = tested on: T47D
HOP-62 = tested on: HOP-62
NCI-H460 = tested on: NCI-H460
SK-MEL-2 = tested on: SK-MEL-2
HT-29 = tested on: HT-29
OVCAR-8 = tested on: OVCAR-8
SW-620 = tested on: SW-620
IGROV-1 = tested on: IGROV-1
DU-145 = tested on: DU-145
NCI/ADR-RES = tested on: NCI/ADR-RES
RXF 393 = tested on: RXF 393
M14 = tested on: M14
MDA-MB-231 = tested on: MDA-MB-231
SNB-19 = tested on: SNB-19
Hs-578T = tested on: Hs-578T
KM12 = tested on: KM12
MDA-MB-435 = tested on: MDA-MB-435
SR = tested on: SR
NCI-H522 = tested on: NCI-H522
A498 = tested on: A498
EKVX = tested on: EKVX
HCT-15 = tested on: HCT-15
ACHN = tested on: ACHN
LOX IMVI = tested on: LOX IMVI
A549 = tested on: A549
HL-60 = tested on: HL-60
OVCAR-5 = tested on: OVCAR-5
UO-31 = tested on: UO-31
RPMI-8226 = tested on: RPMI-8226
NCI-H226 = tested on: NCI-H226
OVCAR-3 = tested on: OVCAR-3
MCF7 = tested on: MCF7
NCI-H23 = tested on: NCI-H23
TK-10 = tested on: TK-10
OVCAR-4 = tested on: OVCAR-4
CAKI-1 = tested on: CAKI-1
SK-MEL-5 = tested on: SK-MEL-5
SF-295 = tested on: SF-295
UACC-257 = tested on: UACC-257
CCRF-CEM = tested on: CCRF-CEM
UACC-62 = tested on: UACC-62
SF-539 = tested on: SF-539
BT-549 = tested on: BT-549
SK-MEL-28 = tested on: SK-MEL-28
K562 = tested on: K562
HCC 2998 = tested on: HCC 2998
MDA-N = tested on: MDA-N
786-0 = tested on: 786-0
HCT-116 = tested on: HCT-116
MOLT-4 = tested on: MOLT-4
SN12C = tested on: SN12C
Malme-3M = tested on: Malme-3M
SNB-75 = tested on: SNB-75

## NC(=O)NC(=O)c1cccc(NC(=O)CBr)c1
COLO 205
  GI50: < 10 nM (active)
SK-OV-3
  GI50: 27.2 nM (active)
SF-268
  GI50: < 15.8 nM (active)
HOP-92
  GI50: < 21.6 nM (active)
PC-3
  GI50: < 18.2 nM (active)
U-251
  GI50: < 18 nM (active)
T47D
  GI50: 1420 nM (inactive)
HOP-62
  GI50: 57.7 nM (active)
NCI-H460
  GI50: < 50.9 nM (active)
SK-MEL-2
  GI50: 28.6 nM (active)
HT-29
  GI50: < 16.8 nM (active)
OVCAR-8
  GI50: < 17.2 nM (active)
SW-620
  GI50: < 10 nM (active)
IGROV-1
  GI50: 26.6 nM (active)
DU-145
  GI50: < 22 nM (active)
NCI/ADR-RES
  GI50: < 17.1 nM (active)
RXF 393
  GI50: < 19 nM (active)
M14
  GI50: 198 nM (active)
MDA-MB-231
  GI50: 63.1 nM (active)
SNB-19
  GI50: 515 nM (active)
Hs-578T
  GI50: < 20.6 nM (active)
KM12
  GI50: 21.6 nM (active)
MDA-MB-435
  GI50: < 14.3 nM (active)
SR
  GI50: < 10 nM (active)
NCI-H522
  GI50: < 10 nM (active)
A498
  GI50: 102 nM (active)
EKVX
  GI50: 766 nM (active)
HCT-15
  GI50: < 16.1 nM
ACHN
  GI50: < 20.9 nM (active)
LOX IMVI
  GI50: < 10 nM (active)
A549
  GI50: 912 nM (active)
HL-60
  GI50: < 10 nM (active)
OVCAR-5
  GI50: < 20.4 nM (active)
UO-31
  GI50: 209 nM (active)
RPMI-8226
  GI50: < 14.1 nM (active)
NCI-H226
  GI50: < 18.8 nM (active)
OVCAR-3
  GI50: < 10 nM (active)
MCF7
  GI50: < 10 nM (active)
NCI-H23
  GI50: < 19.5 nM (active)
TK-10
  GI50: < 23.1 nM (active)
OVCAR-4
  GI50: 70.6 nM (active)
CAKI-1
  GI50: < 10 nM (active)
SK-MEL-5
  GI50: < 11.9 nM (active)
SF-295
  GI50: 197 nM (active)
UACC-257
  GI50: < 31.1 nM (active)
CCRF-CEM
  GI50: < 10 nM (active)
UACC-62
  GI50: < 17.5 nM (active)
SF-539
  GI50: < 36.2 nM (active)
BT-549
  GI50: < 20 nM (active)
SK-MEL-28
  GI50: 1440 nM (inactive)
K562
  GI50: < 10 nM (active)
HCC 2998
  GI50: 282 nM (active)
MDA-N
  GI50: < 13.4 nM (active)
786-0
  GI50: < 10 nM (active)
HCT-116
  GI50: < 10 nM (active)
MOLT-4
  GI50: < 10 nM (active)
SN12C
  GI50: < 20.6 nM (active)

## CC1=NN(c2nc(N)nc(/C(C#N)=C\c3ccc([N+](=O)[O-])s3)n2)C(C)(C)C1
COLO 205
  GI50: 339 nM (active)
SK-OV-3
  GI50: 8990 nM (inactive)
SF-268
  GI50: 408 nM (active)
HOP-92
  GI50: 302 nM (active)
PC-3
  GI50: 165 nM (active)
U-251
  GI50: 104 nM (active)
T47D
  GI50: 74.3 nM (active)
HOP-62
  GI50: 316 nM (active)
NCI-H460
  GI50: 209 nM (active)
SK-MEL-2
  GI50: 375 nM (active)
HT-29
  GI50: 265 nM (active)
OVCAR-8
  GI50: 113 nM (active)
SW-620
  GI50: 73.6 nM (active)
IGROV-1
  GI50: 284 nM (active)
DU-145
  GI50: 240 nM (active)
NCI/ADR-RES
  GI50: 1180 nM (inactive)
RXF 393
  GI50: 236 nM (active)
M14
  GI50: 298 nM (active)
MDA-MB-231
  GI50: 220 nM (active)
SNB-19
  GI50: 1660 nM (inactive)
Hs-578T
  GI50: 783 nM (active)
KM12
  GI50: 316 nM (active)
MDA-MB-435
  GI50: 233 nM (active)
SR
  GI50: 18 nM (active)
NCI-H522
  GI50: 101 nM (active)
A498
  GI50: 7780 nM (inactive)
EKVX
  GI50: 817 nM (active)
HCT-15
  GI50: 108 nM
ACHN
  GI50: 261 nM (active)
LOX IMVI
  GI50: 157 nM (active)
A549
  GI50: 887 nM (active)
OVCAR-5
  GI50: 3460 nM (inactive)
UO-31
  GI50: 167 nM (active)
RPMI-8226
  GI50: 21.8 nM (active)
NCI-H226
  GI50: 2390 nM (inactive)
OVCAR-3
  GI50: 124 nM (active)
MCF7
  GI50: 142 nM (active)
NCI-H23
  GI50: 760 nM (active)
Malme-3M
  GI50: 764 nM (active)
TK-10
  GI50: 507 nM (active)
OVCAR-4
  GI50: 2550 nM (inactive)
CAKI-1
  GI50: 1160 nM (inactive)
SK-MEL-5
  GI50: 625 nM (active)
SF-295
  GI50: 2960 nM (inactive)
UACC-257
  GI50: 211 nM (active)
CCRF-CEM
  GI50: 17.5 nM (active)
UACC-62
  GI50: 861 nM (active)
SF-539
  GI50: 169 nM (active)
BT-549
  GI50: 701 nM (active)
SK-MEL-28
  GI50: 383 nM (active)
K562
  GI50: < 17.8 nM (active)
HCC 2998
  GI50: 1410 nM (inactive)
MDA-N
  GI50: 340 nM (active)
786-0
  GI50: 160 nM (active)
SNB-75
  GI50: 764 nM (active)
HCT-116
  GI50: 244 nM (active)
MOLT-4
  GI50: 138 nM (active)
SN12C
  GI50: 363 nM (active)
